Measured values: patent US8871681B2, “Herbicidal compositions comprising 4-amino-3-chloro-5-fluoro-6-(4-chloro-2-fluoro-3-methoxyphenyl) pyridine-2-carboxylic acid or a derivative thereof and certain sulfonylureas” (Dow AgroSciences LLC, priority 2012, dated 2014)

Test system: ECHOR (Echinochloa oryzoides, early watergrass)
Assay: In-water applied weed control, transplanted paddy rice, greenhouse (Example II)
Format: in vivo, Echinochloa oryzoides (Ard.) Fritsch
Method in brief: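 Transplanted rice and weeds at first to fourth true leaf stage in flooded mud pots (2.5–3 cm water), greenhouse ~29/26 °C day/night. Herbicides alone or mixed, in 1.25% crop oil concentrate (acetone for technical material), injected into the flood; visual 0–100% injury after ~3 weeks, expected mixture effects by Colby.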

For COC(=O)c1ccccc1CS(=O)(=O)NC(=O)Nc1nc(OC)cc(OC)n1 [Bensulfuron-methyl, methyl 2-[[[[[(4,6-dimethoxy-2-pyrimidinyl)amino]carbonyl]amino]sulfonyl]methyl]benzoate, reference compound], the “Visual Weed Control (%) - 25 DAA ECHOR Obs” value (Table 31, 35 gai/ha alone) was 80%, the “Visual Weed Control (%) - 19 DAA ECHOR Obs” value (Table 31, 70 gai/ha alone) was 78% and the “Visual Weed Control (%) - 25 DAA ECHOR Obs” value (Table 31, 70 gai/ha alone) was 85%. For the same molecule, the “Visual Weed Control (%) - 21 DAA ECHOR Obs” value (Table 32, 35 gai/ha alone) was 0% and the “Visual Weed Control (%) - 21 DAA ECHOR Obs” value (Table 32, 70 gai/ha alone) was 15%.

In the case of COC(=O)c1ccccc1S(=O)(=O)NC(=O)Nc1nc(C)nc(OC)n1 [Metsulfuron-methyl, methyl 2-[[[[(4-methoxy-6-methyl-1,3,5-triazin-2-yl)amino]carbonyl]amino]sulfonyl]benzoate, reference compound], the “Visual Weed Control (%) - 21 DAA ECHOR Obs” value (Table 41, 7.5 gai/ha alone) is reported as 50%, the “Visual Weed Control (%) - 21 DAA ECHOR Obs” value (Table 41, 15 gai/ha alone) is reported as 65% and the “Visual Weed Control (%) - 21 DAA ECHOR Obs” value (Table 42, 7.5 gai/ha alone) is reported as 50%. The “Visual Weed Control (%) - 21 DAA ECHOR Obs” value (Table 42, 15 gai/ha alone) was 65%.

For COc1c(Cl)ccc(-c2nc(C(=O)OCc3ccccc3)c(Cl)c(N)c2F)c1F [Compound A Benzyl Ester], the “Visual Weed Control (%) - 20 DAA ECHOR Obs” value (Table 29, 4.38 gae/ha alone) was 10%, the “Visual Weed Control (%) - 20 DAA ECHOR Obs” value (Table 29, 8.75 gae/ha alone) was 20% and the “Visual Weed Control (%) - 20 DAA ECHOR Obs” value (Table 29, 17.5 gae/ha alone) was 30%. The “Visual Weed Control (%) - 20 DAA ECHOR Obs” value (Table 29, 35 gae/ha alone) was 53%, the “Visual Weed Control (%) - 20 DAA ECHOR Obs” value (Table 29, 70 gae/ha alone) was 73% and the “Visual Weed Control (%) - 21 DAA ECHOR Obs” value (Table 32, 8 gae/ha alone) was 8%. For the same molecule, the “Visual Weed Control (%) - 21 DAA ECHOR Obs” value (Table 32, 16 gae/ha alone) was 5%, the “Visual Weed Control (%) - 22 DAA ECHOR Obs” value (Table 35, 17.5 gae/ha alone) was 30% and the “Visual Weed Control (%) - 21 DAA ECHOR Obs” value (Table 37, 8.75 gae/ha alone) was 25%. The “Visual Weed Control (%) - 21 DAA ECHOR Obs” value (Table 37, 17.5 gae/ha alone) was 25%, the “Visual Weed Control (%) - 21 DAA ECHOR Obs” value (Table 42, 4.38 gae/ha alone) was 15% and the “Visual Weed Control (%) - 21 DAA ECHOR Obs” value (Table 42, 8.75 gae/ha alone) was 15%. The “Visual Weed Control (%) - 21 DAA ECHOR Obs” value (Table 42, 17.5 gae/ha alone) was 20%, the “Visual Weed Control (%) - 20 DAA ECHOR Obs” value (Table 44, 8.75 gae/ha alone) was 20% and the “Visual Weed Control (%) - 20 DAA ECHOR Obs” value (Table 44, 17.5 gae/ha alone) was 30%. For the same molecule, the “Visual Weed Control (%) - 21 DAA ECHOR Obs” value (Table 46, 4.38 gae/ha alone) was 0%, the “Visual Weed Control (%) - 21 DAA ECHOR Obs” value (Table 46, 8.75 gae/ha alone) was 10% and the “Visual Weed Control (%) - 21 DAA ECHOR Obs” value (Table 46, 17.5 gae/ha alone) was 60%.

With COCC(=O)OC(c1ncccc1S(=O)(=O)NC(=O)Nc1nc(OC)cc(OC)n1)C(C)F (stereo not shown) [Flucetosulfuron, 1-[3-[[[[(4,6-dimethoxy-2-pyrimidinyl)amino]carbonyl]amino]sulfonyl]-2-pyridinyl]-2-fluoropropyl 2-methoxyacetate] the “Visual Weed Control (%) - 21 DAA ECHOR Obs” value (Table 36, 0.1 gai/ha alone) was 0%, the “Visual Weed Control (%) - 21 DAA ECHOR Obs” value (Table 36, 0.2 gai/ha alone) was 0% and the “Visual Weed Control (%) - 21 DAA ECHOR Obs” value (Table 37, 0.1 gai/ha alone) was 0%. For the same molecule, the “Visual Weed Control (%) - 21 DAA ECHOR Obs” value (Table 37, 0.2 gai/ha alone) was 0%.

For COc1c(Cl)ccc(-c2nc(C(=O)O)c(Cl)c(N)c2F)c1F [Compound A Acid, 4-amino-3-chloro-5-fluoro-6-(4-chloro-2-fluoro-3-methoxy-phenyl)pyridine-2-carboxylic acid], the “Visual Weed Control (%) - 20 DAA ECHOR Obs” value (Table 28, 8.75 gae/ha alone) was 20%, the “Visual Weed Control (%) - 20 DAA ECHOR Obs” value (Table 28, 17.5 gae/ha alone) was 30% and the “Visual Weed Control (%) - 20 DAA ECHOR Obs” value (Table 28, 35 gae/ha alone) was 40%. The “Visual Weed Control (%) - 20 DAA ECHOR Obs” value (Table 28, second set, 35 gae/ha alone) was 25%, the “Visual Weed Control (%) - 20 DAA ECHOR Obs” value (Table 28, second set, 70 gae/ha alone) was 35% and the “Visual Weed Control (%) - 25 DAA ECHOR Obs” value (Table 31, 8.75 gae/ha alone) was 0%. The “Visual Weed Control (%) - 25 DAA ECHOR Obs” value (Table 31, 17.5 gae/ha alone) was 0%, the “Visual Weed Control (%) - 25 DAA ECHOR Obs” value (Table 31, 35 gae/ha alone) was 40% and the “Visual Weed Control (%) - 19 DAA ECHOR Obs” value (Table 31, 42 gae/ha alone) was 15%. The “Visual Weed Control (%) - 22 DAA ECHOR Obs” value (Table 34, 10.6 gae/ha alone) was 15%, the “Visual Weed Control (%) - 22 DAA ECHOR Obs” value (Table 34, 21.2 gae/ha alone) was 30% and the “Visual Weed Control (%) - 22 DAA ECHOR Obs” value (Table 34, 42.4 gae/ha alone) was 40%. The “Visual Weed Control (%) - 21 DAA ECHOR Obs” value (Table 36, 8.75 gae/ha alone) was 10%, the “Visual Weed Control (%) - 21 DAA ECHOR Obs” value (Table 36, 17.5 gae/ha alone) was 10% and the “Visual Weed Control (%) - 21 DAA ECHOR Obs” value (Table 36, 35 gae/ha alone) was 15%. The “Visual Weed Control (%) - 21 DAA ECHOR Obs” value (Table 41, 10.6 gae/ha alone) was 0%, the “Visual Weed Control (%) - 21 DAA ECHOR Obs” value (Table 41, 21.2 gae/ha alone) was 15% and the “Visual Weed Control (%) - 21 DAA ECHOR Obs” value (Table 41, 42.4 gae/ha alone) was 15%. For the same molecule, the “Visual Weed Control (%) - 20 DAA ECHOR Obs” value (Table 43, 10.6 gae/ha alone) was 10%, the “Visual Weed Control (%) - 20 DAA ECHOR Obs” value (Table 43, 21.2 gae/ha alone) was 30% and the “Visual Weed Control (%) - 20 DAA ECHOR Obs” value (Table 43, 42.4 gae/ha alone) was 45%.
